“And” between values parts separate entries of the source, which are not always exact repeats. Identical values can stand only once. Toxic doses and inconclusive results are not listed. Cut-off read from the data, not from the text of the source: active = T/C of 150% or more; inactive = T/C below 125%.
Tested on: L1210 leukemia ip in BDF1 mice, survival T/C
Experiment: NCI In Vivo Anticancer Drug Screen. Data for tumor model L1210 Leukemia (intraperitoneal) in B6D2F1 (BDF1) mice
Details: endpoint: mean survival time, higher = longer survival
In short: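 Survival endpoint. Drug-treated group vs vehicle group, expressed as T divided by C. Tumor passaged by transplantation.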

[1] = dose: 100.0 mg/kg/injection, schedule: Q04DX003 (ip), vehicle: Klucel (hydroxypropylcellulose) (HPC)
[2] = dose: 200.0 mg/kg/injection, schedule: Q04DX003 (ip), vehicle: Klucel (hydroxypropylcellulose) (HPC)
[3] = dose: 400.0 mg/kg/injection, schedule: Q04DX003 (ip), vehicle: Klucel (hydroxypropylcellulose) (HPC)
[4] = dose: 100.0 mg/kg/injection, schedule: Q01DX001 (ip), vehicle: saline
[5] = dose: 200.0 mg/kg/injection, schedule: Q01DX001 (ip), vehicle: saline
[6] = dose: 50.0 mg/kg/injection, schedule: Q01DX009 (ip), vehicle: Klucel (hydroxypropylcellulose) (HPC)
[7] = dose: 100.0 mg/kg/injection, schedule: Q01DX009 (ip), vehicle: Klucel (hydroxypropylcellulose) (HPC)

Measured: T/C

CC(O)(Cc1ccccc1)c1ccccc1 (stereo not drawn)
inactive: dose: 44.0 mg/kg/injection, schedule: Q04DX003 (ip), vehicle: saline with Tween-80 94 % of control | dose: 66.0 mg/kg/injection, schedule: Q04DX003 (ip), vehicle: saline with Tween-80 94 % of control | dose: 100.0 mg/kg/injection, schedule: Q01DX009 (ip), vehicle: saline with Tween-80 102 % of control | dose: 100.0 mg/kg/injection, schedule: Q04DX003 (ip), vehicle: saline with Tween-80 94 % of control | dose: 150.0 mg/kg/injection, schedule: Q04DX003 (ip), vehicle: saline with Tween-80 96 % of control | dose: 200.0 mg/kg/injection, schedule: Q01DX009 (ip), vehicle: saline with Tween-80 98 % of control | dose: 200.0 mg/kg/injection, schedule: Q04DX003 (ip), vehicle: saline with Tween-80 107 % of control | dose: 400.0 mg/kg/injection, schedule: Q01DX009 (ip), vehicle: saline with Tween-80 102 % of control | dose: 400.0 mg/kg/injection, schedule: Q04DX003 (ip), vehicle: saline with Tween-80 104 % of control

O=C(O)c1ccc(S(=O)(=O)c2ccc(C(=O)O)cc2)cc1
inactive: [1] 103 % of control | [2] 97 % of control | [3] 88 % of control

O=CN1CCCCC1
inactive: [4] 97 % of control | [5] 105 % of control

O=[N+]([O-])c1ccccc1N=Nc1c(O)[nH]c2ccc(F)cc12
inactive: dose: 75.0 mg/kg/injection, schedule: Q01DX001 (ip), vehicle: acetone 96 % of control | dose: 150.0 mg/kg/injection, schedule: Q01DX001 (ip), vehicle: acetone 96 % of control | dose: 300.0 mg/kg/injection, schedule: Q01DX001 (ip), vehicle: acetone 103 % of control

O=C1NC(=O)C(c2ccco2)N1 (stereo not drawn)
inactive: [1] 105 % of control | [2] 103 % of control | [3] 114 % of control

CCCC1(CC)C(=O)NC(=S)N(C)C1=O (stereo not drawn)
inactive: dose: 75.0 mg/kg/injection, schedule: Q01DX001 (ip), vehicle: carboxymethylcellulose (CMC) 95 % of control | dose: 75.0 mg/kg/injection, schedule: Q01DX001 (ip), vehicle: other 94 % of control | dose: 150.0 mg/kg/injection, schedule: Q01DX001 (ip), vehicle: carboxymethylcellulose (CMC) 98 % of control | dose: 150.0 mg/kg/injection, schedule: Q01DX001 (ip), vehicle: other 111 % of control | dose: 300.0 mg/kg/injection, schedule: Q01DX001 (ip), vehicle: carboxymethylcellulose (CMC) 104 % of control

CCNC(=O)c1cc[n+](CC)c(/C=C/c2c[nH]c3ccccc23)c1
inactive: dose: 100.0 mg/kg/injection, schedule: Q01DX001 (ip), vehicle: carboxymethylcellulose (CMC) 96 % of control | dose: 200.0 mg/kg/injection, schedule: Q01DX001 (ip), vehicle: carboxymethylcellulose (CMC) 98 % of control | dose: 400.0 mg/kg/injection, schedule: Q01DX001 (ip), vehicle: carboxymethylcellulose (CMC) 100 % of control

CCOC(=O)N1C=Cn2c(cnc2C)C1OC (stereo not drawn)
inactive: dose: 50.0 mg/kg/injection, schedule: Q01DX009 (ip), vehicle: water 93 % of control | dose: 100.0 mg/kg/injection, schedule: Q01DX009 (ip), vehicle: water 98 % of control | dose: 200.0 mg/kg/injection, schedule: Q01DX009 (ip), vehicle: water 95 % of control and 86 % of control

CN(C)CCCn1c2c(c3ccccc31)CCCCCC2
inactive: dose: 6.25 mg/kg/injection, schedule: Q01DX009 (ip), vehicle: saline 96 % of control | dose: 12.5 mg/kg/injection, schedule: Q01DX009 (ip), vehicle: saline 93 % of control | dose: 25.0 mg/kg/injection, schedule: Q01DX009 (ip), vehicle: saline 98 % of control | dose: 50.0 mg/kg/injection, schedule: Q01DX009 (ip), vehicle: saline 102 % of control

OCCNc1nn2ccnc2c2ccccc12
inactive: dose: 100.0 mg/kg/injection, schedule: Q04DX002 (ip), vehicle: saline with Tween-80 92 % of control | dose: 200.0 mg/kg/injection, schedule: Q04DX002 (ip), vehicle: saline with Tween-80 92 % of control | dose: 400.0 mg/kg/injection, schedule: Q04DX002 (ip), vehicle: saline with Tween-80 92 % of control

O=C1C=C(C23CC4CC(CC(C4)C2)C3)Nc2ccccc2N1
inactive: dose: 100.0 mg/kg/injection, schedule: Q04DX002 (ip), vehicle: Klucel (hydroxypropylcellulose) (HPC) 94 % of control | dose: 200.0 mg/kg/injection, schedule: Q04DX002 (ip), vehicle: Klucel (hydroxypropylcellulose) (HPC) 105 % of control | dose: 400.0 mg/kg/injection, schedule: Q04DX002 (ip), vehicle: Klucel (hydroxypropylcellulose) (HPC) 94 % of control

Cc1ccc(NC(=O)CI)cc1
inactive: dose: 50.0 mg/kg/injection, schedule: Q04DX002 (ip), vehicle: other 100 % of control

[CH3][Sn]([CH3])([Cl])[CH2]Cl
inactive: dose: 0.39 mg/kg/injection, schedule: Q01DX009 (ip), vehicle: saline 112 % of control | dose: 0.78 mg/kg/injection, schedule: Q01DX009 (ip), vehicle: saline 119 % of control | dose: 1.56 mg/kg/injection, schedule: Q01DX009 (ip), vehicle: saline 97 % of control and 91 % of control | dose: 3.12 mg/kg/injection, schedule: Q01DX009 (ip), vehicle: saline 87 % of control

NC(CS)=NC1CCCC1
inactive: dose: 12.5 mg/kg/injection, schedule: Q04DX003 (ip), vehicle: saline 108 % of control | dose: 25.0 mg/kg/injection, schedule: Q04DX003 (ip), vehicle: saline 115 % of control | dose: 50.0 mg/kg/injection, schedule: Q04DX003 (ip), vehicle: saline 112 % of control

C/C(=N/N=C(N)N)c1cccc(O)c1
inactive: dose: 15.0 mg/kg/injection, schedule: Q01DX Z (ip), vehicle: methylcellulose (MC) 107 % of control | dose: 30.0 mg/kg/injection, schedule: Q01DX Z (ip), vehicle: methylcellulose (MC) 110 % of control | dose: 30.0 mg/kg/injection, schedule: Q01DX Z (oral), vehicle: methylcellulose (MC) 89 % of control | dose: 60.0 mg/kg/injection, schedule: Q01DX Z (ip), vehicle: methylcellulose (MC) 97 % of control

COC(=O)C1=C(C(=O)OC)C2OC1C(COC(C)=O)=C2COC(C)=O
inactive: dose: 100.0 mg/kg/injection, schedule: Q04DX003 (ip), vehicle: saline 93 % of control

O=NN(CCCC(=O)O)C(=O)NCCCC(=O)O
inactive: dose: 25.0 mg/kg/injection, schedule: Q01DX Z (ip), vehicle: carboxymethylcellulose (CMC) 103 % of control | dose: 50.0 mg/kg/injection, schedule: Q01DX Z (ip), vehicle: carboxymethylcellulose (CMC) 90 % of control | dose: 100.0 mg/kg/injection, schedule: Q01DX Z (ip), vehicle: carboxymethylcellulose (CMC) 100 % of control | dose: 200.0 mg/kg/injection, schedule: Q01DX Z (ip), vehicle: carboxymethylcellulose (CMC) 94 % of control | dose: 300.0 mg/kg/injection, schedule: Q01DX Z (ip), vehicle: carboxymethylcellulose (CMC) 95 % of control

CCc1ccccc1NC(=O)c1cccc(C(=O)Nc2ccccc2CC)c1
inactive: [6] 98 % of control | [7] 94 % of control | [1] 91 % of control | dose: 200.0 mg/kg/injection, schedule: Q01DX009 (ip), vehicle: Klucel (hydroxypropylcellulose) (HPC) 110 % of control | [2] 88 % of control

O=C(O)CC(O)C(Cl)(Cl)Cl (stereo not drawn)
inactive: [4] 93 % of control | [5] 104 % of control | dose: 400.0 mg/kg/injection, schedule: Q01DX001 (ip), vehicle: saline 98 % of control

ClC(Cl)(Cl)c1ccc(C(Cl)(Cl)Cl)cc1
inactive: dose: 12.5 mg/kg/injection, schedule: Q01DX009 (ip), vehicle: Klucel (hydroxypropylcellulose) (HPC) 96 % of control | dose: 25.0 mg/kg/injection, schedule: Q01DX009 (ip), vehicle: Klucel (hydroxypropylcellulose) (HPC) 104 % of control | [6] 94 % of control and 97 % of control | [7] 94 % of control | [1] 105 % of control | [2] 91 % of control

From PubChem BioAssay AID248 (DTP/NCI, 2004)
